Laboratory results taken from US20120022261A1, “Colorant Compositions Containing an Oxonol Dye” (priority 2005, published 2012).

What was measured:
[1] = 50° C. test (storage at 50° C. over 18 hours in a hot-air cabinet); assay type: physicochemical; design: key: A positive test result indicates that the product still exists in a solid and powdery state after the heat treatment; If the product undergoes a sintering process and/or starts to melt at this temperature, the test result is classified as negative; settings: solid product stored at 50° C. for 18 hours in a hot-air cabinet
Experimental: The 50° C. test involves storing the product to be tested at 50° C. over a period of 18 hours in a hot-air cabinet. […] If the product undergoes a sintering process and/or starts to melt at this temperature, the test result is classified as negative.

[2] = Solubility in organic solvents (EtOH, MEK); assay type: physicochemical; settings: for Solubility (g/l) EtOH: solvent EtOH; for Solubility (g/l) MEK: solvent MEK (methylethyl ketone)

For CC1=C(C#N)C(=O)N(C(C)C)C(=O)C1=CC=Cc1c(C)c(C#N)c(=O)n(C(C)C)c1[O-].CCCC[N+](CCCC)(CCCC)CCCC [i-propyl, i-propyl, tetrabutyl-ammonium], the “50° C. Test” value [1] was “positive”.

With CCCCC[N+](CCCCC)(CCCCC)CCCCC.CCn1c([O-])c(C=CC=C2C(=O)N(CCCOC(C)C)C(=O)C(C#N)=C2C)c(C)c(C#N)c1=O [reference compound] the “50° C. Test” value [1] was “negative”, the “Solubility (g/l) EtOH” value [2] was 45 g/L and the “Solubility (g/l) MEK” value [2] was 32 g/L.

With CCCC[N+](CCCC)(CCCC)CCCC.CCCN1C(=O)C(=CC=Cc2c(C)c(C#N)c(=O)n(CCC)c2[O-])C(C)=C(C#N)C1=O [n-propyl, n-propyl, tetrabutyl-ammonium] the “50° C. Test” value [1] was “positive”, the “Solubility (g/l) EtOH” value [2] was 14 g/L and the “Solubility (g/l) MEK” value [2] was 69 g/L.

With CCCCN1C(=O)C(=CC=Cc2c(C)c(C#N)c(=O)n(CCCC)c2[O-])C(C)=C(C#N)C1=O.CCCC[N+](CCCC)(CCCC)CCCC [n-butyl, n-butyl, tetrabutyl-ammonium] the “50° C. Test” value [1] was “positive”, the “Solubility (g/l) EtOH” value [2] was 35.5 g/L and the “Solubility (g/l) MEK” value [2] was 98 g/L.

For CCCC[N+](CCCC)(CCCC)CCCC.CCCCn1c([O-])c(C=CC=C2C(=O)N(CC)C(=O)C(C#N)=C2C)c(C)c(C#N)c1=O [ethyl, n-butyl, tetrabutyl-ammonium], the “50° C. Test” value [1] was “positive”, the “Solubility (g/l) EtOH” value [2] was 14.3 g/L and the “Solubility (g/l) MEK” value [2] was 41.4 g/L.

For CCCCCN1C(=O)C(=CC=Cc2c(C)c(C#N)c(=O)n(CCCCC)c2[O-])C(C)=C(C#N)C1=O.CCCC[N+](CCCC)(CCCC)CCCC [n-pentyl, n-pentyl, tetrabutyl-ammonium], the “50° C. Test” value [1] was “positive”, the “Solubility (g/l) EtOH” value [2] was 50 g/L and the “Solubility (g/l) MEK” value [2] was 380 g/L.

With CC1=C(C#N)C(=O)N(CC(C)C)C(=O)C1=CC=Cc1c(C)c(C#N)c(=O)n(CC(C)C)c1[O-].CCCC[N+](CCCC)(CCCC)CCCC the “50° C. Test” value [1] was “positive”, the “Solubility (g/l) EtOH” value [2] was 4 g/L and the “Solubility (g/l) MEK” value [2] was 56.2 g/L.

With CCCC[N+](CCCC)(CCCC)CCCC.CCN1C(=O)C(=CC=Cc2c(C)c(C#N)c(=O)n(CC)c2[O-])C(C)=C(C#N)C1=O [ethyl, ethyl, tetrabutyl-ammonium] the “50° C. Test” value [1] was “positive”, the “Solubility (g/l) EtOH” value [2] was 5.6 g/L and the “Solubility (g/l) MEK” value [2] was 63.2 g/L.

With CCCC[N+](CCCC)(CCCC)CCCC.COCCN1C(=O)C(=CC=Cc2c(C)c(C#N)c(=O)n(CCOC)c2[O-])C(C)=C(C#N)C1=O [reference compound] the “50° C. Test” value [1] was “negative”.

In the case of CCCC[N+](CCCC)(CCCC)CCCC.CCn1c([O-])c(C=CC=C2C(=O)N(CCCOC(C)C)C(=O)C(C#N)=C2C)c(C)c(C#N)c1=O [reference compound], the “50° C. Test” value [1] is reported as “negative”, the “Solubility (g/l) EtOH” value [2] is reported as 146 g/L and the “Solubility (g/l) MEK” value [2] is reported as 231 g/L.

In the case of CC1=C(C#N)C(=O)N(CCCOC(C)C)C(=O)C1=CC=Cc1c(C)c(C#N)c(=O)n(C)c1[O-].CCCC[N+](CCCC)(CCCC)CCCC [reference compound], the “50° C. Test” value [1] is reported as “negative”, the “Solubility (g/l) EtOH” value [2] is reported as 21.3 g/L and the “Solubility (g/l) MEK” value [2] is reported as 28.5 g/L.

In the case of CCCC[N+](CCCC)(CCCC)CCCC.CCCCn1c([O-])c(C=CC=C2C(=O)N(CCCOC(C)C)C(=O)C(C#N)=C2C)c(C)c(C#N)c1=O [reference compound], the “50° C. Test” value [1] is reported as “negative”, the “Solubility (g/l) EtOH” value [2] is reported as 197 g/L and the “Solubility (g/l) MEK” value [2] is reported as 339 g/L.
